{"source": "paper PMC4948780", "about": "“PARP Inhibitors in Clinical Use Induce Genomic Instability in Normal Human Cells” (PLoS ONE, 2016)", "key": {"MCF-10A [1]": {"tested_on": "MCF-10A", "assay": "Sister chromatid exchange (SCE) assay, BrdU differential staining", "type": "cell-based, human", "description": "(§1) Human mammary epithelial cell lines used included non-tumorigenic diploid MCF-10A, HMEC-hTERT and tumorigenic MDA-MB-468 (basal) and MCF-7 (luminal). […] Blood samples were obtained from normal donor participants. The participants provided written informed consent to IRB protocol #95–054 approved by the Institutional Review Board at MSKCC. The original signed consent is then sent to the research participant’s medical record and a copy of the consent is given to the participant. The EBV-transformed B-lymphocyte cell line (EBV-BL) was generated by transformation of peripheral blood mononuclear cells (PBMC) with the B95.8 strain of EBV, as previously described. Primary T cells were generated from PBMC from two normal donors by non-specific activation with phytohemagglutinin and cultured in RPMI1640 and human serum AB for 4–14 days before use. E14 mES cell line was provided by M. Hooper, Brca1^-/- 236.44 mES cell line was provided by B. H. Koller, Brca2^lex1/lex2 mES cell line was provided by P. Hasty and Lexicon Genetics. E14 wild-type, Brca1^-/- 236.44, and Brca2^lex1/lex2 mES cell lines were cultured in standard ES media. Brca1^-/- 236.44 cells express a BRCA1 peptide deleted for sequences encoded by exon 11 [52], while Brca2^lex1/lex2 cells express a BRCA2 peptide deleted for the terminal exon 27 [53]. Olaparib was synthesized in the MSKCC Organic chemistry core facility. Veliparib and BSI-201 were purchased from Chemie Tek. The compounds were dissolved in DMSO and PBS. For clonogenic survival assays, MCF-10A (1000 cells), HMEC-hTERT (1000 cells), MDA-MB-468 (1500 cells) and mouse ES cell (2000 cells) were seeded, vehicle control or inhibitors were added at the indicated concentration 24 hours after seeding and changed every three days for continuous treatment. At 7–14 days, colonies were fixed with methanol and stained with Giemsa. For EBV-BL (6 × 10^6) and primary T cells (3.6 × 10^6) were continuously exposed to the indicated concentration of drug for 10 days at 0.6 × 10^6 cells/ml. Viable cells were scored by trypan blue exclusion.\n(§2) To prepare metaphase spreads, exponentially growing cells were treated with 0.1–0.3 μg/ml of colcemid for 1–6 hr. Cells were collected and incubated in hypotonic solution (0.56% KCl), fixed in methanol: acetic acid (3:1), spotted to slides and air-dried. To measure chromosomal aberrations, the slides were stained with 2% Giemsa/Sorensen’s buffer. To visualize SCEs, the doubling time for each cell type was determined. Cells were incubated with 10 μM BrdU for two cell cycles. After metaphase spreads were prepared, the slides were treated with 0.5 μg/ml Hoechst 33258. The slides were exposed to black light for 20–60 min, incubated at 60°C for 2 hr, and stained in 4–10% Giemsa/Sorensen’s buffer."}, "EBV-BL [2]": {"tested_on": "EBV-BL", "assay": "Sister chromatid exchange (SCE) assay, BrdU differential staining", "type": "cell-based, human", "description": "as §1, §2"}, "EBV-BL [3]": {"tested_on": "EBV-BL", "assay": "Survival, trypan blue exclusion test of cell viability", "type": "cell-based, human", "details": "Homo sapiens, 240 h, continuous exposure 10 days, trypan blue exclusion", "description": "as §1, with “Olaparib was synthesized in the MSKCC Organic chemistry core facility.” left out"}, "[4]": {"tested_on": "Brca1^-/- 236.44 mES cells", "assay": "Clonogenic survival assay, mES cells", "type": "cell-based, mouse", "details": "for pIC50: Mus musculus, read-out: IC50 (clonogenic survival)", "description": "as §1, with “Olaparib was synthesized in the MSKCC Organic chemistry core facility.” left out"}, "[5]": {"tested_on": "Brca2^lex1/lex2 mES cells", "assay": "Clonogenic survival assay, mES cells", "type": "cell-based, mouse", "details": "for pIC50: Mus musculus, read-out: IC50 (clonogenic survival)", "description": "as §1, with “Olaparib was synthesized in the MSKCC Organic chemistry core facility.” left out"}, "MCF-10A [6]": {"tested_on": "MCF-10A", "assay": "Clonogenic survival assay", "type": "cell-based, human", "method": "Clonogenic survival was assessed by colony counting at 9 days. […] Viable cells were scored and enumerated by trypan blue exclusion at 7 days. Means with SD are shown (MCF-10A: n = 3, primary T cell 1: n = 2). […] Fold increases of SCE per chromosome compared with no treatment or 0.5 μM cisplatin are shown for each cell type. Approximately 50 metaphases were counted for each cell. Error bars depict the mean with SD. Asterisks designate statistical significance for unpaired t-test at P < 0.0001. C. […] One hundred metaphases were counted for each exposure. Fold increases of chromatid-type aberrations per chromosome compared with no treatment or 0.5 μM cisplatin are shown for each cell type. The y-axis is the number of total chromatid-type aberrations per chromosome for each metaphase counted. Error bars indicate mean with SEM. The P-values were calculated using unpaired t-test.\nas §1"}, "[7]": {"tested_on": "cellular PARP activity in EBV-BL", "assay": "Cellular PARP activity assay (PAR levels, HT PARP In vivo Pharmacodynamic Assay)", "type": "cell-based, human", "method": "Cellular PARP activity was determined by measuring net PAR expression using HT PARP In vivo Pharmacodynamic Assay (Trevigen) as specified by the manufacturer. PAR levels in samples were calculated using standard curves and normalized using protein concentration. Protein concentration was measured with Lowry protocol using RC DC Protein Assay Kits (Bio-Rad)."}, "WT E14 mES cells": {"tested_on": "WT E14 mES cells", "assay": "Clonogenic survival assay, mES cells", "type": "cell-based", "details": "Mus musculus, read-out: IC50 (clonogenic survival)", "description": "as §1, with “Olaparib was synthesized in the MSKCC Organic chemistry core facility.” left out"}, "BRCA-deficient mES cells": {"tested_on": "BRCA-deficient mES cells", "set-up": "method as in PMID 15829967", "details": "cited from earlier work"}, "primary T cell 1 [8]": {"tested_on": "primary T cell 1", "assay": "Survival, trypan blue exclusion", "type": "cell-based, human", "details": "first 24 hr, trypan blue exclusion at 7 days, read-out: IC50 (survival), cisplatin alone", "method": "A. […] Viable cells were scored and enumerated by trypan blue exclusion at 7 days. […] Approximately 50 metaphases were counted for each cell. Error bars depict the mean with SD. Asterisks designate statistical significance for unpaired t-test at P < 0.0001. C. […] One hundred metaphases were counted for each exposure. […] The y-axis is the number of total chromatid-type aberrations per chromosome for each metaphase counted. Error bars indicate mean with SEM. The P-values were calculated using unpaired t-test."}, "primary T cell 1 [9]": {"tested_on": "primary T cell 1", "assay": "Sister chromatid exchange (SCE) assay, BrdU differential staining", "type": "cell-based, human", "details": "0.5 μM cisplatin alone, first 24hr", "description": "as §1, §2"}, "primary T cell 1 [10]": {"tested_on": "primary T cell 1", "assay": "Chromosomal aberrations on metaphase spreads (Giemsa)", "type": "cell-based, human", "details": "0.5 μM cisplatin alone, 24 hr", "method": "as §2"}, "[11]": {"details": "Homo sapiens, continuous exposure, clonogenic survival assay, read-out: IC50 (cell survival)"}}, "note": "pIC50: −log10 of the molar value. Where “and” joins values, the source holds several entries; their conditions need not be identical. Identical values can stand only once. Like-named read-outs stand apart in the source and are kept apart here."}
{"smiles": "C[C@]1(c2nc3c(C(N)=O)cccc3[nH]2)CCCN1", "note": "[veliparib]", "values": [{"measurement": "Mean no. SCE / metaphase ± SD", "setting": "MCF-10A [1]; 1.5 μM", "result": "26.9 ± 6.6"}, {"measurement": "Mean no. SCE / metaphase ± SD", "setting": "MCF-10A [1]; 10 μM", "result": "51.3 ± 9.4"}, {"measurement": "Mean no. SCE / metaphase ± SD", "setting": "EBV-BL [2]; 1.5 μM", "result": "18.7 ± 4.6"}, {"measurement": "Mean no. SCE / metaphase ± SD", "setting": "EBV-BL [2]; 10 μM", "result": "32.2 ± 7.2"}, {"measurement": "pIC50", "setting": "EBV-BL [3]; read-out: IC50 (cell survival), EBV-BL", "result": 4.37}, {"measurement": "pIC50", "setting": "[4]", "result": 8.01}, {"measurement": "pIC50", "setting": "[5]", "result": 6.77}, {"measurement": "pIC50", "setting": "MCF-10A [6]; [11]", "result": 4.16}, {"measurement": "decrease of PARP activity", "setting": "[7]", "result": "~ 98% and > 99%"}, {"measurement": "pIC50", "setting": "WT E14 mES cells", "result": 5.80}]}
{"smiles": "O=C(c1cc(Cc2n[nH]c(=O)c3ccccc23)ccc1F)N1CCCNCC1", "note": "[KU0058948]", "values": [{"measurement": "sensitivity of BRCA-deficient mES cells", "setting": "BRCA-deficient mES cells", "result": "marked hypersensitivity"}]}
{"smiles": "NC(=O)c1ccc(I)c([N+](=O)[O-])c1", "note": "[BSI-201]", "values": [{"measurement": "Mean no. SCE / metaphase ± SD", "setting": "MCF-10A [1]; 20 μM", "result": "7.9 ± 2.9"}, {"measurement": "Mean no. SCE / metaphase ± SD", "setting": "MCF-10A [1]; 40 μM", "result": "8.6 ± 2.9"}, {"measurement": "Mean no. SCE / metaphase ± SD", "setting": "MCF-10A [1]; 80 μM", "result": "9.4 ± 2.6"}, {"measurement": "Mean no. SCE / metaphase ± SD", "setting": "EBV-BL [2]; 20 μM", "result": "8.4 ± 3.6"}, {"measurement": "Mean no. SCE / metaphase ± SD", "setting": "EBV-BL [2]; 40 μM", "result": "9.4 ± 2.9"}, {"measurement": "Mean no. SCE / metaphase ± SD", "setting": "EBV-BL [2]; 80 μM", "result": "16.6 ± 4.2"}, {"measurement": "pIC50", "setting": "EBV-BL [3]; EBV-BL, read-out: IC50 (cell survival)", "result": 4.31}, {"measurement": "pIC50", "setting": "[4]; Brca1^-/- 236.44 mES cells", "result": 4.13}, {"measurement": "enhanced sensitivity of cells lacking wild-type BRCA1 vs wild-type cells", "setting": "[4]; ratio of IC50, wild-type / Brca1^-/- 236.44", "result": 1.5, "unit": "fold"}, {"measurement": "pIC50", "setting": "[5]; Brca2^lex1/lex2 mES cells", "result": 4.15}, {"measurement": "enhanced sensitivity of cells lacking wild-type BRCA2 vs wild-type cells", "setting": "[5]; ratio of IC50, wild-type / Brca2^lex1/lex2", "result": 1.6, "unit": "fold"}, {"measurement": "pIC50", "setting": "MCF-10A [6]; [11]", "result": 4.25}, {"measurement": "decrease of PARP activity", "setting": "[7]; EBV-BL, 24 hr, BSI-201 treated, vs untreated cells", "result": "~ 60%"}, {"measurement": "pIC50", "setting": "WT E14 mES cells; wild-type E14 mES cells", "result": 3.95}]}
{"smiles": "N.N.[Cl][Pt][Cl]", "note": "[cisplatin]", "values": [{"measurement": "pIC50", "setting": "primary T cell 1 [8]", "result": 5.76}, {"measurement": "Fold increase of SCE per chromosome compared with no treatment", "setting": "MCF-10A [1]; 0.5 μM cisplatin alone, 30 hr", "result": 6.3, "unit": "fold"}, {"measurement": "Mean no. SCE / chromosome ± SD", "setting": "MCF-10A [1]; 0.5 μM cisplatin alone, 30 hr", "result": "1.03 ± 0.12"}, {"measurement": "Mean no. SCE / metaphase ± SD", "setting": "MCF-10A [1]; 0.5 μM cisplatin alone, 30 hr", "result": "47.7 ± 5.5"}, {"measurement": "Fold increase of SCE per chromosome compared with no treatment", "setting": "primary T cell 1 [9]", "result": 3.8, "unit": "fold"}, {"measurement": "Mean no. SCE / chromosome ± SD", "setting": "primary T cell 1 [9]", "result": "0.79 ± 0.23"}, {"measurement": "Mean no. SCE / metaphase ± SD", "setting": "primary T cell 1 [9]", "result": "36.6 ± 10.8"}, {"measurement": "Fold increase of chromatid-type aberrations per chromosome compared with no treatment", "setting": "primary T cell 1 [10]", "result": 2, "unit": "fold"}, {"measurement": "total chromatid-type aberrations / metaphase (mean ± SEM)", "setting": "primary T cell 1 [10]", "result": "0.38 ± 0.07"}, {"measurement": "chromatid-type gap/break", "setting": "primary T cell 1 [10]; 100 metaphases", "result": 36}, {"measurement": "chromatid-type radial chromosome", "setting": "primary T cell 1 [10]; 100 metaphases", "result": 1}, {"measurement": "chromatid-type telomere association", "setting": "primary T cell 1 [10]; 100 metaphases", "result": 0}, {"measurement": "chromosome-type dicentric", "setting": "primary T cell 1 [10]; 100 metaphases", "result": 1}, {"measurement": "chromosome-type gap/break", "setting": "primary T cell 1 [10]; 100 metaphases", "result": 6}, {"measurement": "total chromatid-type aberrations", "setting": "primary T cell 1 [10]; 100 metaphases", "result": 38}, {"measurement": "pIC50", "setting": "MCF-10A [6]; cisplatin first 30 hr, colony counting at 9 days, read-out: IC50 (survival), cisplatin alone", "result": 5.47}]}
{"smiles": "O=C1CCC(=O)N1c1cc(Cc2n[nH]c(=O)c3ccccc23)ccc1F", "note": "[KU0058684]", "values": [{"measurement": "sensitivity of BRCA-deficient mES cells", "setting": "BRCA-deficient mES cells", "result": "marked hypersensitivity"}]}
